Laboratory results taken from patent US6617114B1, “Identification of drug complementary combinatorial libraries” (priority 1996, dated 2003).
Where a SMILES comes first, the peptide text is derived from it. Bridges are numbered along the chain shown (N, C = ends).

What was measured:
E. coli ProRS [1] = target: T1, E. coli ProRS (Escherichia coli, UniProt P16659); experiment: ELSA of ProRS surrogate ligand; format: binding; settings: tested on ProRS, GST-src SH3, GST, GST-UL44, TyrRS, GST-MDM2
Method: (§1) Target protein was immobilized in microtiter wells by incubating 0.5-2.0 μg per well in 100 μl of 0.1 M NaHCO3 overnight at 4° C. […] During the 1 hour blocking period, the SA-AP:surrogate ligand conjugate was prepared by mixing 2 μg SA-AP and 50 pmol biotinylated surrogate ligand for each well of target protein. (This corresponds to a 1:1 ratio of biotinylated peptide to biotin binding sites.) The mixture was incubated at room temperature for 15-20 minutes and then diluted with Tris-buffered saline-TWEEN-20 detergent (TBST) 10 mM Tris-HCl, pH 8.0, 150 mM NaCl, 0.05% TWEEN-20 detergent such that there was 100 μl of conjugate per well. For lower concentrations of surrogate ligand, an unrelated biotinylated peptide was titrated in to keep the total amount of biotinylated peptide at 50 pmol/well and total SA-AP at 2 μg/well.
(§2) After blocking, the wells were washed once with 200 μl TBST. The surrogate ligand:SA-AP conjugate was then added (100 μl/well) and incubated at room temperature for 2 hours. The wells were then washed 5 times with 300 μl TBST using a BioRad 1575 Immunowash plate washer. The assay was developed by adding 100 μl of pNPP and incubating at room temperature for 5-10 minutes. The absorbance was read at 405 nm.
(§3) A peptide corresponding to the most often isolated phage was synthesized and used in an ELSA as described in example 1. […]

E. coli ProRS [2] = target: T1, E. coli ProRS; experiment: ProRS charging assay; format: biochemical
Method: One question that could be answered with peptides designed from these phage is whether or not they are directed to random regions on the target protein or if they target active sites and regions of other biological interactions. The peptides used in the above ELSAs were added to a charging assay to assess its affects on enzymatic activity of the target.

TyrRS = TyrRS (Haemophilus influenzae, UniProt P43836); experiment: ELSA of TyrRS surrogate ligand; format: binding; settings: tested on TyrRS, GST-src SH3, GST, GST-UL44, GST-MDM2, ProRS
Chain of TyrRS (P43836 whole entry): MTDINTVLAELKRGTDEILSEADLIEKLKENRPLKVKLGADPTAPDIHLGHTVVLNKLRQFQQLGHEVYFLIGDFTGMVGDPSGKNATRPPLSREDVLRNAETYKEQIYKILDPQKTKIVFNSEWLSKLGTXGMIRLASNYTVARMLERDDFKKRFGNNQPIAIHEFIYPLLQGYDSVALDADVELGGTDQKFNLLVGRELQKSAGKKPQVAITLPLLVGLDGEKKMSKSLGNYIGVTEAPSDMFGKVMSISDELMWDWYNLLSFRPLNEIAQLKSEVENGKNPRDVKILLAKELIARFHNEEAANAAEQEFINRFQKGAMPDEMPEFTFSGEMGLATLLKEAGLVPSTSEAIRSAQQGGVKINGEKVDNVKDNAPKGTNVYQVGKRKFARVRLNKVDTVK
Method: as §1
as §2, with “nm. […]” for “nm.”
The ability of the compound to inhibit the binding of the TyrRS1B peptide to TyrRS was determined. […]

E. coli ProRS [3] = target: T2, E. coli ProRS (Escherichia coli, UniProt P16659); experiment: ELSA of ProRS surrogate ligand; format: binding; settings: self-competition
T2 sequence (P16659 whole entry, looked up): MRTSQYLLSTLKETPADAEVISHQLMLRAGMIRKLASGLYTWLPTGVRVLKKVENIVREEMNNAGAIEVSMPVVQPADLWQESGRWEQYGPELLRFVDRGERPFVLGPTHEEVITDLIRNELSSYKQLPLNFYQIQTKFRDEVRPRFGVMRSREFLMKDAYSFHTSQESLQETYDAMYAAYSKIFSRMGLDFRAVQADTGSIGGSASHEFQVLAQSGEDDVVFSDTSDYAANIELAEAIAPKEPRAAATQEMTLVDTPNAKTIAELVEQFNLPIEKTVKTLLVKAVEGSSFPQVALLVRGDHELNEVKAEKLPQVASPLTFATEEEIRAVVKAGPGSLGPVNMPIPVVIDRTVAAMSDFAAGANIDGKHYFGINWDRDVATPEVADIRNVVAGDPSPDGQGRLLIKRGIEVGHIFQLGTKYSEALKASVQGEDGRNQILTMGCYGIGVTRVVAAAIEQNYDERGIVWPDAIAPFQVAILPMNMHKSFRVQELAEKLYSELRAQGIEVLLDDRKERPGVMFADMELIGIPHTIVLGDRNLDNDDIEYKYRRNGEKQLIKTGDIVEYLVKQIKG
Method: as §1, §2, §3

Compound: CC[C@H](C)[C@@H]1NC(=O)[C@H](C)NC(=O)[C@@H](NC(=O)[C@@H](NC(=O)[C@H](CCCNC(=N)N)NC(=O)[C@@H](N)CO)C(C)C)CSSC[C@@H](C(=O)N[C@@H](CO)C(=O)N[C@@H](CCCNC(=N)N)C(=O)O)NC(=O)CNC(=O)[C@H](CC(=O)O)NC(=O)[C@H](CC(C)C)NC(=O)[C@H](CC(=O)O)NC(=O)[C@@H]2CCCN2C(=O)[C@H](Cc2c[nH]c3ccccc23)NC1=O [ProRS BioKey, S R V C A I W P D L D G C S R] (H-SRVCAIWPDLDGCSR-OH; disulfide 4-13; N-terminus and C-terminus assumed)
- specificity of binding of biotinylated peptide (E. coli ProRS [1]): specific for E. coli ProRS
- time of preincubation with the peptide for 50% inhibition (E. coli ProRS [2]; 530 μM peptide): about 1.5 hours
- mode of inhibition (E. coli ProRS [2]; charging assay): competitive in respect to proline

Compound: L Y S W P D E Q Y E R P (LYSWPDEQYERP) [Peptide 1]
- specificity of binding of biotinylated peptide (TyrRS): binds to TyrRS specifically

Compound: S R V C A I W P D L D G C S R (SRVCAIWPDLDGCSR) [non-biotinylated ProRS peptide]
- disruption of biotinylated ProRS peptide binding (E. coli ProRS [3]): disrupted in a dose dependent fashion
